# Measurements as given in patent US20260053861A1, “CELL COMPOSITIONS AND METHODS OF USING THE SAME” (THE REGENTS OF THE UNIVERSITY OF CALIFORNIA, priority 2022, published 2026).
# Structures can show the parent of a compound that is named as a salt.
# System: hPSC-SCs
# Conditions: not given
row,Compound,z.score.t
1,CC(C)[N+]1(C)[C@@H]2CC[C@H]1CC(OC(=O)C(CO)c1ccccc1)C2.[Br-] (stereo partly shown) [Ipratropium bromide],−0.649
2,CC[C@H](C)[C@H]1O[C@]2(CC[C@@H]1C)C[C@@H]1C[C@@H](C/C=C(\C)[C@@H](O[C@H]3C[C@H](OC)[C@@H](O[C@H]4C[C@H](OC)[C@@H](O)[C@H](C)O4)[C@H](C)O3)[C@@H](C)/C=C/C=C3\CO[C@@H]4[C@H](O)C(C)=C[C@@H](C(=O)O1)[C@]34O)O2 [Ivermectin],−1.866
3,CCN1C[C@]2(C)CC[C@H](O)[C@]34C1[C@@H](C[C@H]23)[C@@]1(O)C[C@H](OC)[C@H]2C[C@@H]4[C@@H]1[C@H]2O [Karakoline],1.53
4,COC1=CC(=O)O[C@@H](/C=C/c2ccccc2)C1 [Kawain],0.9109
5,Cl.OC1CCCCC1N1CCC(c2ccccc2)CC1 (stereo not drawn) [L(−)-vesamicol hydrochloride],0.6964
6,CC(=O)O[C@H]1C[C@H](O[C@H]2[C@@H](O)C[C@H](O[C@H]3[C@@H](O)C[C@H](O[C@H]4CC[C@@]5(C)[C@H](CC[C@@H]6[C@@H]5C[C@@H](O)[C@]5(C)[C@@H](C7=CC(=O)OC7)CC[C@]65O)C4)O[C@@H]3C)O[C@@H]2C)O[C@H](C)[C@H]1O[C@@H]1O[C@H](CO)[C@@H](O)[C@H](O)[C@H]1O [Lanatoside C],−2.334
7,CC1=CC(=O)C2=C(C)CC[C@@H]3[C@H](OC(=O)[C@H]3C)[C@@H]12 [Leucomisine],1.214
8,C[C@H](N)[C@H](O)c1ccc(O)c(O)c1 [Levonordefrin],0.1916
9,CCC(=O)O[C@@](Cc1ccccc1)(c1ccccc1)[C@@H](C)CN(C)C [Levopropoxyphene napsylate],−0.5351
10,CCN(CC)CC(=O)Nc1c(C)cccc1C.Cl [LidocaÂ<ne hydrochloride],−0.01953
11,CN1[C@@H](C[C@@H](O)c2ccccc2)CCC[C@H]1C[C@H](O)c1ccccc1.Cl [Lobelanidine hydrochloride],−0.3319
12,CN1[C@@H](CC(=O)c2ccccc2)CCC[C@H]1C[C@H](O)c1ccccc1.Cl [Lobeline alpha (−) hydrochoride],−0.2904
13,CN(C)C(=O)C(CCN1CCC(O)(c2ccc(Cl)cc2)CC1)(c1ccccc1)c1ccccc1 [Loperamide hydrochloride],−1.329
14,COC1=C[C@@H]2C3=C([C@@H]2C1=O)[C@@H](NC(C)=O)CCc1cc(OC)c(OC)c(OC)c13 [Lumicolchicine gamma],1.528
15,CN1C[C@H](CO)C=C2c3cccc4[nH]cc(c34)C[C@H]21 [Lysergol],0.1979
16,CN(C)CCOC(=O)COc1ccc(Cl)cc1 [Meclofenoxate hydrochloride],−2.264

# Same assay, conditions: HTS viability of hPSC-SCs in the presence of 30 mM glucose; Prestwick library; Table S4
row,Compound,z.score.t
1,CNC(=O)c1c(I)c(C(=O)NCC(=O)Nc2c(I)c(C(=O)O)c(I)c(C(=O)NCCO)c2I)c(I)c(N(C)C(C)=O)c1I [Ioxaglic acid],1.475
2,Cc1cc(C(=O)NNCc2ccccc2)no1 [Isocarboxazid],−0.9569
3,Clc1ccc(C(Cn2ccnc2)OCc2c(Cl)cccc2Cl)c(Cl)c1 (stereo not shown) [Isoconazole],−1.91
4,COc1ccc2c(c1O)-c1c(OC)c(OC)cc3c1[C@H](C2)N(C)CC3 [Isocorydine (+)],1.845
5,CC(=O)OCC(=O)[C@@]1(O)CC[C@H]2[C@@H]3CCC4=CC(=O)C=C[C@]4(C)[C@@]3(F)[C@@H](O)C[C@@]21C [Isoflupredone acetate],−0.3156
6,CNC(C)CCC=C(C)C.CNC(C)CCC=C(C)C.O=C(O)[C@@H](O)[C@H](O)[C@H](O)[C@@H](O)C(=O)O [Isometheptene mucate],1.27
7,NNC(=O)c1ccncc1 [Isoniazid],0.5041
8,CC(C)[N+](C)(CCC(C(N)=O)(c1ccccc1)c1ccccc1)C(C)C [Isopropamide iodide],0.3675
9,Cc1c(NC(C)C)c(=O)n(-c2ccccc2)n1C.Cl [Isopyrin hydrochloride],−0.2359
10,CC1=C(/C=C/C(C)=C/C=C/C(C)=C\C(=O)O)C(C)(C)CCC1 [Isotretinoin],0.4346
11,Cc1cc(NC(=O)C2=C(O)c3ccccc3S(=O)(=O)N2C)no1 [Isoxicam],1.24
12,CC(COc1ccccc1)NC(C)C(O)c1ccc(O)cc1 (stereo not shown) [Isoxsuprine hydrochloride],−0.1687
13,COC(=O)C1=C(C)NC(C)=C(C(=O)OC(C)C)C1c1cccc2nonc12 (stereo not shown) [Isradipine],0.6428
14,CO[C@@H]1[C@@H](O[C@@H]2O[C@H](C)[C@@H](O[C@H]3C[C@@](C)(O)[C@@H](OC(=O)CC(C)C)[C@H](C)O3)[C@H](N(C)C)[C@H]2O)[C@@H](CC=O)C[C@@H](C)[C@@H](O)/C=C/C=C/C[C@@H](C)OC(=O)C[C@H]1OC(C)=O [Josamycin],−0.827
15,O=c1c(O)c(-c2ccc(O)cc2)oc2cc(O)cc(O)c12 [Kaempferol],−1.014
16,NC[C@H]1O[C@H](O[C@H]2[C@H](O)[C@@H](O[C@H]3O[C@H](CO)[C@@H](O)[C@H](N)[C@H]3O)[C@H](N)C[C@@H]2N)[C@H](O)[C@@H](O)[C@@H]1O.O=S(=O)(O)O [Kanamycin A sulfate],0.07052
17,CC(=O)N1CCN(c2ccc(OCC3COC(Cn4ccnc4)(c4ccc(Cl)cc4Cl)O3)cc2)CC1 (stereo not shown) [Ketoconazole],1.669
18,CC(C(=O)O)c1cccc(C(=O)c2ccccc2)c1 (stereo not shown) [Ketoprofen],−1.014
19,O=C(c1ccccc1)c1ccc2n1CCC2C(=O)O (stereo not shown) [Ketorolac tromethamine],0.8465
20,CN1CCC(=C2c3ccccc3CC(=O)c3sccc32)CC1 [Ketotifen fumarate],−0.7415
21,COc1c2occc2c(OC)c2c(=O)cc(C)oc12 [Khellin],0.7913
22,CC(CCc1ccccc1)NCC(O)c1ccc(O)c(C(N)=O)c1 (stereo not shown) [Labetalol hydrochloride],0.7665
23,O=C(O)[C@H](O)[C@@H](O)[C@H](O[C@@H]1O[C@H](CO)[C@H](O)[C@H](O)[C@H]1O)[C@H](O)CO [Lactobionic acid],1.942
24,Cc1c(OCC(F)(F)F)ccnc1C[S+]([O-])c1nc2ccccc2[nH]1 (stereo not shown) [Lansoprazole],1.808
25,CC[C@@H](C(=O)[C@@H](C)[C@@H](O)[C@H](C)CCc1ccc(C)c(O)c1C(=O)O)[C@H]1O[C@](CC)([C@H]2CC[C@](O)(CC)[C@H](C)O2)C[C@@H]1C [Lasalocid sodium salt],−2.368
26,Cc1oncc1C(=O)Nc1ccc(C(F)(F)F)cc1 [Leflunomide],0.9178

row,Compound,z.score.t
1,N#Cc1ccc(C(c2ccc(C#N)cc2)n2cncn2)cc1 [Letrozole],−0.4953
2,c1ccc([C@H]2CN3CCSC3=N2)cc1 [Levamisole hydrochloride],0.4064
3,C[C@@H]1CN([C@H]2CC[C@](C#N)(c3ccc(F)cc3)CC2)CC[C@]1(C(=O)O)c1ccccc1 [Levocabastine hydrochloride],−0.6516
4,N[C@@H](Cc1ccc(O)c(O)c1)C(=O)O [Levodopa],−1.365
5,Cc1cccc(C)c1NC(=O)CN1CCN(CCCC(c2ccc(F)cc2)c2ccc(F)cc2)CC1 [Lidoflazine],−1.03
6,CCC[C@@H]1C[C@@H](C(=O)N[C@@H]([C@H]2O[C@H](SC)[C@H](O)[C@@H](O)[C@H]2O)[C@@H](C)O)N(C)C1 [Lincomycin hydrochloride],0.1446
7,N[C@@H](Cc1cc(I)c(Oc2ccc(O)c(I)c2)c(I)c1)C(=O)O [Liothyronine],−1.539
8,NCCCC[C@H](N[C@@H](CCc1ccccc1)C(=O)O)C(=O)N1CCC[C@H]1C(=O)O [Lisinopril],0.08508
9,C[C@H](CCC(=O)O)[C@H]1CC[C@H]2[C@@H]3CC[C@@H]4C[C@H](O)CC[C@]4(C)[C@H]3CC[C@]12C [Lithocholic acid],−0.7945
10,CCn1cc(C(=O)O)c(=O)c2cc(F)c(N3CCNC(C)C3)c(F)c21 (stereo not shown) [Lomefloxacin hydrochloride],−0.9109
11,CCCCCN(CCCCC)C(=O)C(CCC(=O)O)NC(=O)c1ccc(Cl)c(Cl)c1 (stereo not shown) [Lorglumide sodium salt],1.824
12,CC[C@H](C)C(=O)O[C@H]1C[C@@H](C)C=C2C=C[C@H](C)[C@H](CC[C@@H]3C[C@@H](O)CC(=O)O3)[C@H]21 [Lovastatin],−0.865
13,CN1CCN(C2=Nc3ccccc3Oc3ccc(Cl)cc32)CC1 [Loxapine succinate],−0.2278
14,O=c1cc(-c2ccc(O)c(O)c2)oc2cc(O)cc(O)c12 [Luteolin],−0.7945
15,CN(C)[C@@H]1C(O)=C(C(=O)NCNCCCC[C@H](N)C(=O)O)C(=O)[C@@]2(O)C(O)=C3C(=O)c4c(O)cccc4[C@@](C)(O)[C@H]3C[C@@H]12 [Lymecycline],−0.5745
16,C#C[C@]1(O)CC[C@H]2[C@@H]3CCC4=CCCC[C@@H]4[C@H]3CC[C@@]21C [Lynestrenol],−1.847
17,NCc1ccc(S(N)(=O)=O)cc1 [Mafenide hydrochloride],−0.4019
18,CNCCCC12CCC(c3ccccc31)c1ccccc12 [Maprotiline hydrochloride],−0.865
19,COC(=O)Nc1nc2ccc(C(=O)c3ccccc3)cc2[nH]1 [Mebendazole],−1.584
20,CCN(CCCCOC(=O)c1ccc(OC)c(OC)c1)C(C)Cc1ccc(OC)cc1 (stereo not shown) [Mebeverine hydrochloride],−0.3301
21,"CN1CCc2c(c3ccccc3n2Cc2ccccc2)C1.O=S(=O)(O)c1cccc2c(S(=O)(=O)O)cccc12 [Mebhydroline 1,5-naphtalenedisulfonate]",0.7312
22,CNC1(C)C2CCC(C2)C1(C)C (stereo not shown) [Mecamylamine hydrochloride],0.3097
23,C=C1c2c(Cl)ccc(O)c2C(=O)C2=C(O)[C@]3(O)C(=O)C(C(N)=O)=C(O)[C@@H](N(C)C)[C@@H]3[C@@H](O)[C@H]12.O=C(O)c1cc(S(=O)(=O)O)ccc1O [Meclocycline sulfosalicylate],1.049
24,Cc1cccc(CN2CCN(C(c3ccccc3)c3ccc(Cl)cc3)CC2)c1 (stereo not shown) [Meclozine dihydrochloride],−1.823
25,CC(=O)[C@H]1CC[C@H]2[C@@H]3C[C@H](C)C4=CC(=O)CC[C@]4(C)[C@H]3[C@@H](O)C[C@]12C [Medrysone],0.1244
